# Assay results published in the SangsterLogP compilation.
row,logP,Structure (SMILES)
1,2.8,COc1ccc(C(=O)N(C(C)C)C(C)C)cc1
2,2.8,O=C(c1ccccc1Cl)N1CCCCC1
3,1,CCNC(=O)Cc1ccccc1
4,3,Cc1cccc(C(=O)N(C(C)C)C(C)C)c1
5,1.72,Cc1ccc(C(=O)N(C)C)cc1
6,2.5,CCOc1ccccc1C(=O)N(CC)CC
7,2.5,CCN(CC)C(=O)c1ccc(OC)cc1
8,2.8,Cc1ccc(C(=O)N2CCCCC2)cc1
9,2.4,CCNC(=O)c1ccccc1OCC
10,1.48,CN(C)C(=O)Cc1ccccc1
11,2.38,CCN(CC)C(=O)c1ccc(C)cc1
12,1.38,CCNC(=O)c1ccc(C)cc1
13,2.5,Cc1ccc(C(=O)N(C(C)C)C(C)C)cc1
14,1.54,CN(C)C(=O)c1ccccc1Cl
15,2.28,CCNC(=O)CC1CCCCC1
16,3,CCOc1ccccc1C(=O)N(C(C)C)C(C)C
17,1.14,CCNC(=O)c1ccc(OC)cc1
18,2.6,Cc1cccc(C(=O)N2CCCCC2)c1

row,logP,Structure (SMILES)
1,2.4,COc1ccc(C(=O)N2CCCCC2)cc1
2,2.34,CCN(CC)C(=O)c1cccc(C)c1
3,2.6,CCOc1ccccc1C(=O)N1CCCCC1
4,3,CC(C)N(C(=O)c1ccccc1Cl)C(C)C
5,2.1,CCN(CC)C(=O)c1ccccc1Cl
6,1.8,CCN(CC)C(=O)c1ccccc1
7,2.4,CCN(CC)C(=O)Cc1ccccc1
8,1.32,CCNC(=O)c1cccc(C)c1
9,2.19,CN(C)C(=O)CC1CCCCC1
10,1.6,Cc1cccc(C(=O)N(C)C)c1
11,3.2,O=C(CC1CCCCC1)N1CCCCC1
12,2.2,O=C(c1ccccc1)N1CCCCC1
13,0.95,CCNC(=O)c1ccccc1Cl
14,2.5,CC(C)N(C(=O)c1ccccc1)C(C)C
15,2.44,O=C(Cc1ccccc1)N1CCCCC1
16,3.12,CCN(CC)C(=O)CC1CCCCC1
17,1.2,CN(C)C(=O)c1ccccc1
18,3.1,CC(C)N(C(=O)Cc1ccccc1)C(C)C
